These results are taken from PMC6761534 (Antimicrobial Agents and Chemotherapy, 2019).

What all share (type): cell-based, Mycobacterium tuberculosis
Assay [1] has as its system M. tuberculosis c subunit mutant strain D28V.
Assay [2] deals with M. tuberculosis c subunit mutant strain D28A.
Assay [3] concerns M. tuberculosis c subunit mutant strain D28G.
Assay [4] has as its system M. tuberculosis c subunit mutant strain I66M.
The next assay concerns M. tuberculosis H37Rv.
The subject of assay [5] is M. tuberculosis c subunit mutant strain E61D.
The test system of assay [6] is M. tuberculosis c subunit mutant strain A63P.

As to `COc1cc([C@](O)(CCN(C)C)[C@@H](c2cc3cc(Br)ccc3nc2OC)c2ccnc(OC)c2OC)cc(OC)n1` [compound 5307], the “MIC90 fold increase in M. tuberculosis c subunit mutant strain D28V” value in assay [1] amounted to 360 fold. Also, the “MIC90 fold increase in M. tuberculosis c subunit mutant strain D28A” value in assay [2] worked out at 357 fold. The “MIC90 fold increase in M. tuberculosis c subunit mutant strain D28G” value in assay [3] is 235 fold. Besides, the “MIC90 fold increase in M. tuberculosis c subunit mutant strain I66M” value in assay [4] was 87 fold. In the assay with M. tuberculosis H37Rv, the Mutation frequency is listed as 3.00 × 10^−8 and the “No. of atpE mutants/total no. of mutants isolated” value was 33/34. The “MIC90 fold increase in M. tuberculosis c subunit mutant strain E61D” value in assay [5] was 100 fold. In assay [6], the “MIC90 fold increase in M. tuberculosis c subunit mutant strain A63P” value turned out to be 150 fold.
`COc1cc([C@](O)(CCN(C)C)[C@@H](c2cc3cc(Br)ccc3nc2OC)c2cccc3c2OCCO3)cc(OC)n1` [compound 5316]: in assay [1], the “MIC90 fold increase in M. tuberculosis c subunit mutant strain D28V” value turned out to be 200 fold. Also, in assay [2], the “MIC90 fold increase in M. tuberculosis c subunit mutant strain D28A” value was found to be 200 fold. Moreover, in assay [3], the “MIC90 fold increase in M. tuberculosis c subunit mutant strain D28G” value is on record as 200 fold. In addition, the “MIC90 fold increase in M. tuberculosis c subunit mutant strain I66M” value in assay [4] came out at 42 fold. Moreover, in the assay on M. tuberculosis H37Rv, the Mutation frequency is on record as 6.36 × 10^−9 and the “No. of atpE mutants/total no. of mutants isolated” value is listed as 7/7. Further, in assay [5], the “MIC90 fold increase in M. tuberculosis c subunit mutant strain E61D” value was determined as 105 fold. Further, in assay [6], the “MIC90 fold increase in M. tuberculosis c subunit mutant strain A63P” value is given as 72 fold.
`COc1cc([C@](O)(CCN(C)C)[C@H](c2cc(OC(C)C)cnc2OC)c2cc3cc(Br)ccc3nc2OC)cc(OC)n1` [compound 5366]: in assay [1], the “MIC90 fold increase in M. tuberculosis c subunit mutant strain D28V” value came to 250 fold. Further, the “MIC90 fold increase in M. tuberculosis c subunit mutant strain D28A” value in assay [2] came out at 333 fold. In addition, the “MIC90 fold increase in M. tuberculosis c subunit mutant strain D28G” value in assay [3] amounted to 300 fold. Also, in assay [4], the “MIC90 fold increase in M. tuberculosis c subunit mutant strain I66M” value is recorded as 50 fold. For the same molecule, in the assay with M. tuberculosis H37Rv, the Mutation frequency is 2.54 × 10^−8 and the “No. of atpE mutants/total no. of mutants isolated” value was 28/28. Further, the “MIC90 fold increase in M. tuberculosis c subunit mutant strain E61D” value in assay [5] is 45 fold. Also, the “MIC90 fold increase in M. tuberculosis c subunit mutant strain A63P” value in assay [6] was 50 fold.
For `COc1cc([C@](O)(CCN(C)C)[C@@H](c2cc3cc(Br)ccc3nc2OC)c2cc(OC)nc(OC)c2OC)cc(OC)n1` [TBAJ-876], the “MIC90 fold increase in M. tuberculosis c subunit mutant strain D28V” value in assay [1] is 132 fold. The “MIC90 fold increase in M. tuberculosis c subunit mutant strain D28A” value in assay [2] was found to be 140 fold. The “MIC90 fold increase in M. tuberculosis c subunit mutant strain D28G” value in assay [3] stood at 104 fold. Moreover, the “MIC90 fold increase in M. tuberculosis c subunit mutant strain I66M” value in assay [4] is 59 fold. Besides, in the assay on M. tuberculosis H37Rv, the Mutation frequency was 4.23 × 10^−9 and the “No. of atpE mutants/total no. of mutants isolated” value is recorded as 5/5. In addition, the “MIC90 fold increase in M. tuberculosis c subunit mutant strain E61D” value in assay [5] turned out to be 100 fold. Also, the “MIC90 fold increase in M. tuberculosis c subunit mutant strain A63P” value in assay [6] was determined as 48 fold.
For `COc1nc2ccc(Br)cc2cc1[C@@H](c1ccccc1)[C@@](O)(CCN(C)C)c1cccc2ccccc12` [BDQ, Bedaquiline, reference compound], in assay [1], the “MIC90 fold increase in M. tuberculosis c subunit mutant strain D28V” value is recorded as greater than 400 fold. The “MIC90 fold increase in M. tuberculosis c subunit mutant strain D28A” value in assay [2] is on record as greater than 400 fold. In assay [3], the “MIC90 fold increase in M. tuberculosis c subunit mutant strain D28G” value was greater than 400 fold. Besides, the “MIC90 fold increase in M. tuberculosis c subunit mutant strain I66M” value in assay [4] is given as 262 fold. Besides, the “MIC90 fold increase in M. tuberculosis c subunit mutant strain E61D” value in assay [5] is listed as 312 fold. Further, the “MIC90 fold increase in M. tuberculosis c subunit mutant strain A63P” value in assay [6] was greater than 400 fold.
